Columns and labels:
[1] = tested on: Geotricum candiaum; test: Inhibition zone method, antimicrobial activity; format: cell-based, Geotricum candidum
Text: (§1) Inhibition zone method was followed in order to test the antimicrobial efficiency of the selected nanoemulsion composite mixture samples against 6 chosen strains of gram-positive bacterial strains, 6 strains of gram-negative bacterial strains 6 strains of fungi as shown in the following list;
(§2) The following formulae were defined: • Formula 1 (F1): Green tea essential oil • Formula 2 (F2): Chitosan solution • Formula 3 (F3): benzalkonium solution • Formula 4 (F4): control (antimicrobial compound) • Formula 5 (F5): Green tea essential oil+Chitosan solution • Formula 6 (F6): The final formula of the nanoemulsion composite mixture
(§3) Inhibition zone method was followed in order to test the antimicrobial efficiency of the 6 selected nanoemulsion composite mixture samples against 6 chosen strains of gram-positive bacterial strains, 6 strains of gram-negative bacterial strains 6 strains of fungi.

[2] = tested on: Aspergillus fumigatus; test: Inhibition zone method, antimicrobial activity; format: cell-based
Text: as §1, §2, §3

[3] = tested on: Enterococcus faecalis; test: Inhibition zone method, antimicrobial activity; format: cell-based
Text: as §1, §2, §3

[4] = tested on: Fusarium moniliform; test: Inhibition zone method, antimicrobial activity; format: cell-based
Text: as §1, §2, §3

[5] = tested on: Penicillium italicum; test: Inhibition zone method, antimicrobial activity; format: cell-based
Text: as §1, §2, §3

[6] = tested on: Proteus vulgaris; test: Inhibition zone method, antimicrobial activity; format: cell-based
Text: as §1, §2, §3

[7] = tested on: Micrococcus spp.; test: Inhibition zone method, antimicrobial activity; format: cell-based
Text: as §1, §2, §3

[8] = tested on: Pseudomonas aeruginosa; test: Inhibition zone method, antimicrobial activity; format: cell-based
Text: as §1, §2, §3

[9] = tested on: Candida albicans; test: Inhibition zone method, antimicrobial activity; format: cell-based
Text: as §1, §2, §3

[10] = tested on: Streptococcus mutants; test: Inhibition zone method, antimicrobial activity; format: cell-based
Text: as §1, §2, §3

[11] = tested on: Staphylococcus aureus; test: Inhibition zone method, antimicrobial activity; format: cell-based
Text: as §1, §2, §3

[12] = tested on: Aspergillus niger; test: Inhibition zone method, antimicrobial activity; format: cell-based
Text: as §1, §2, §3

[13] = tested on: Klebsella pneumonia; test: Inhibition zone method, antimicrobial activity; format: cell-based
Text: as §1, §2, §3

[14] = tested on: Salmonella Typhium; test: Inhibition zone method, antimicrobial activity; format: cell-based
Text: as §1, §2, §3

[15] = tested on: Enterobacter colacae; test: Inhibition zone method, antimicrobial activity; format: cell-based
Text: as §1, §2, §3

[16] = tested on: Bacillus subtilis; test: Inhibition zone method, antimicrobial activity; format: cell-based
Text: as §1, §2, §3

[17] = tested on: Eisherecia coli; test: Inhibition zone method, antimicrobial activity; format: cell-based
Text: as §1, §2, §3

[18] = tested on: MRSA; test: Inhibition zone method, antimicrobial activity; format: cell-based, Methicillin-resistant Staphylococcus aureus (MRSA)
Text: as §1, §2, §3

[19] = orally administered to rats; cited from earlier work

Row | Substance | Antimicrobial activity expressed as % inhibition [1] | Antimicrobial activity expressed as % inhibition [2] | Antimicrobial activity expressed as % inhibition [3] | Antimicrobial activity expressed as % inhibition [4] | Antimicrobial activity expressed as % inhibition [5] | Antimicrobial activity expressed as % inhibition [6] | Antimicrobial activity expressed as % inhibition [7] | Antimicrobial activity expressed as % inhibition [8] | Antimicrobial activity expressed as % inhibition [9] | Antimicrobial activity expressed as % inhibition [10] | Antimicrobial activity expressed as % inhibition [11] | Antimicrobial activity expressed as % inhibition [12] | Antimicrobial activity expressed as % inhibition [13] | Antimicrobial activity expressed as % inhibition [14] | Antimicrobial activity expressed as % inhibition [15] | Antimicrobial activity expressed as % inhibition [16] | Antimicrobial activity expressed as % inhibition [17] | Antimicrobial activity expressed as % inhibition [18] | Lethal dose 50 (LD50) [19]
1 | benzalkonium [Formula F3] | 89% | 52% | 60% | 90% | 96% | 95% | 64% | 66% | 50% | 45% | 50% | 70% | 80% | 41% | 94% | 72% | 63% | 90% | –
2 | Benzalkonium chloride [BAC] | – | – | – | – | – | – | – | – | – | – | – | – | – | – | – | – | – | – | 234 to 525 mg/kg

Source: patent publication US20260256134A1, “NanoEmulsion Composite Mixture of Essential Oils with Biodegradable Polymers and Co-Surfactants for Antimicrobial Activities and Enhanced Thermal Stability and Antioxidant Activities” (The American University in Cairo, priority 2022, published 2026)
